# Source: patent publication US20240067600A1, “SMALL MOLECULE INHIBITORS OF THE MITOCHONDRIAL PERMEABILITY TRANSITION PORE (mtPTP)” (UNIVERSITY OF KANSAS, priority 2014, published 2024)
# Columns and labels:
# Type in all cases: biochemical, mice
# mtPTP = test: Calcium retention capacity (CRC) assay on isolated mitochondria; settings: Table 1, average ± SEM; for Calcium Retention Capacity (CRC/CRC0 at 12.5 μM): 12.5 μM compound; for Calcium Retention Capacity (CRC/CRC0) at 1.56 μM: 1.56 μM compound
# Description: Assay buffer: 250 mM sucrose, 10 mM MOPS-Tris, 0.01 mM EGTA-Tris, 1.0 mM phosphoric acid-Tris, pH 7.4. • Solution 1. 10 mM glutamate and 5 mM malate in Assay buffer. • Solution 2. 1% DMSO in Solution 2. • Solution 3. 0.5 mg/mL mitochondria and 1.0 μM Calcium Green-5N in Assay Buffer. • Solution 4. 0.25 mM CaCl2).
# Protocol Summary: • 1. Freshly isolate mitochondria, prepare solutions according to the recipes in the Reagent Section. • 2. Dispense 100 μL of Solution 2 to Columns 1-2 (negative control) of the 96-well black assay plate (Falcon 353376). • 3. Dispense 200 μL of Solution 1 to Row A Columns 3-12. • 4. Next, dispense 100 μL of Solution 2 to Rows B-H Columns 3-12. • 5. Add 4 μL of 5 mM test compounds in DMSO to Row A Columns 3-12, perform 1:2 serial dilutions Row A to H Columns 3-12. • 6. Finally, dispense 100 μL of Solution 3 in all wells. • 7. Experiment starts. Read Calcium Green-5N fluorescence (excitation 485 nm, emission 538 nm) and perform a train of 4 μL Solution 4 additions with Fluoroskan Ascent FL, Thermo Scientific.
# [1] = tested on: Mitochondrial Permeability Transition Pore; test: Mitochondrial swelling absorbance assay; settings: Table 1, average ± SEM
# Description: Mitochondrial Swelling (Hit Validation, Confirmatory Assay, Concentration-Response, AID No. 720722)
# Assay buffer: 250 mM sucrose, 10 mM MOPS-Tris, 0.01 mM EGTA-Tris, 1.0 mM phosphoric acid-Tris, pH 7.4 • Solution 1. 5.0 mM glutamate and 2.5 mM malate in Assay buffer. • Solution 2. 80-120 μM CaCl2) depending on mitochondrial activity in Solution 1. Note: Concentration of Ca^2+ in the assay is dependent upon the activity of the isolated mitochondria which is determined via a calcium titration just before each screening batch. A Ca^2+ concentration is used that allows for the arrival at a 2:1 window at the 20 minute time period. • Solution 3. 1% DMSO in Solution 2. • Solution 4. 2.0 mM EGTA-Tris, pH 7.4 in Solution 3. • Solution 5. 0.5 mg/mL mitochondria in Assay Buffer.
# Protocol Summary: • 1. Freshly isolate mitochondria, prepare solutions according to the recipes in the reagent section • 2. Dispense 100 μL of Solution 4 to Columns 1-2 and Solution 3 Columns 11-12 (positive and negative controls, respectively) of the 96-well clear assay plate (Falcon 353072) • 3. Dispense 200 μL of Solution 1 to Row A Columns 3-10. • 4. Next, dispense 100 μL of Solution 3 to Rows B-H Columns 3-10. • 5. Add 4 μL of 5 mM test compounds in DMSO to Row A Columns 3-10, perform 1:2 serial dilutions Row A to H Columns 3-10. • 6. Finally, dispense 100 μL of Solution 5 in all wells. The reaction starts. • 7. Keep the plate at room temperature for 20 minutes and then read absorbance at 540 nm on MultiSkan EX, Thermo Scientific.
# Concentration-Response Assay to Identify Compounds that Inhibit Mitochondrial Swelling (SAR Assay AID No. 743359)
# Assay buffer: 250 mM sucrose, 10 mM MOPS-Tris, 0.01 mM EGTA-Tris, 1.0 mM phosphoric acid, pH 7.4 • Solution 1. 5.0 mM glutamate and 2.5 mM malate in Assay Buffer. • Solution 2. 100-120 μM CaCl2) depending on mitochondrial activity in Solution 1. Note: Concentration of Ca^2+ in the assay is dependent upon the activity of the isolated mitochondria which is determined via a calcium titration just before each screening batch. A Ca^2+ concentration is used that allows for the arrival at a 2:1 window at the 20 minute time period. • Solution 3. 1% DMSO in Solution 2. • Solution 4. 2.0 mM EGTA-Tris, pH 7.4 in Solution 3. • Solution 5. 0.5 mg/mL mitochondria in Assay Buffer.
# Protocol Summary: • 1. Freshly isolate mitochondria, prepare solutions according to the recipes in the Reagent Section. • 2. Dispense 100 μL of Solution 4 to Columns 1-2 and Solution 3 Columns 11-12 (positive and negative controls, respectively) of the 96-well clear assay plate (Falcon 353072). • 3. Dispense 200 μL of Solution 1 to Row A Columns 3-10. • 4. Next, dispense 100 μL of Solution 3 to Rows B-H Columns 3-10. • 5. Add 4 μL of 5 mM test compounds in DMSO to Row A Columns 3-10, perform 1:2 serial dilutions Row A to H Columns 3-10. • 6. Finally, dispense 100 μL of Solution 5 in all wells. The reaction starts. • 7. Keep the plate at room temperature for 20 minutes and then read absorbance at 540 nm on MultiSkan EX, Thermo Scientific.
# IMM potential = test: Rhodamine 123 (Rh123) uptake counterscreen; settings: Table 1; read-out: Rh123 uptake (EC50);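 note: isolated mitochondria respiring on glutamate plus malate in sucrose MOPS-Tris buffer at pH 7.4, Rh123 added with the organelles, compounds tested across a twofold dilution series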
# Description: Assay buffer: 250 mM sucrose, 10 mM MOPS-Tris, 0.01 mM EGTA-Tris, 1.0 mM phosphoric acid-Tris, pH 7.4 • Solution 1. 5.0 mM glutamate and 2.5 mM malate in Assay Buffer. • Solution 2. 1% DMSO in Solution 1. • Solution 3. 0.8 μM FCCP (the stock 40 μM in DMSO) in Solution 1. • Solution 4. 0.5 mg/mL mitochondria and 0.8 μM Rh123 in Assay Buffer.
# Protocol Summary: • 1. Freshly isolate mitochondria, prepare solutions according to the recipes in the Reagent Section. • 2. Dispense 100 μL of Solution 3 to Columns 1-2 and Solution 2 Columns 11-12 (positive and negative controls, respectively) of the 96-well black assay plate (Falcon 353376). • 3. Dispense 200 μL of Solution 1 to Row A Columns 3-10. • 4. Next, dispense 100 μL of Solution 2 to Rows B-H Columns 3-10. • 5. Add 4 μL of 10 mM test compounds in DMSO to Row A Columns 3-10, perform 1:2 serial dilutions Row A to H Columns 3-10. • 6. Finally, dispense 100 μL of Solution 4 in all wells. The reaction starts. • 7. Keep the plate at room temperature for 5 minutes and then read fluorescence (excitation 485 nm, emission 538 nm) on Fluoroskan Ascent FL, Thermo Scientific.
# Concentration-Response Counterscreen Assay to Identify Compounds that Prevent Mitochondrial Swelling Via Interference with the IMM Potential (SAR Assay AID No. 743361)
# Assay buffer: 250 mM sucrose, 10 mM MOPS-Tris, 0.01 mM EGTA-Tris, 1.0 mM phosphoric acid-Tris, pH 7.4 • Solution 1. 5.0 glutamate and 2.5 mM malate in Assay Buffer. • Solution 2. 1% DMSO in Solution 1. • Solution 3. 0.8 μM FCCP (the stock 40 μM in DMSO) in Solution 1. • Solution 4. 0.5 mg/mL mitochondria and 0.8 μM Rh123 in Assay Buffer.
SMILES,Calcium Retention Capacity (CRC/CRC0 at 12.5 μM) (mtPTP),EC50 [1] [nM],EC50 (IMM potential) [nM],Calcium Retention Capacity (CRC/CRC0) at 1.56 μM (mtPTP),EC50 ([1]; unit inferred) [nM]
Cc1ccc(Cl)cc1NC(=O)c1ccc(-c2cccc(O)c2)cc1,2.59 ± 0.22,4710 ± 349,> 100000,–,–
COc1ccc(-c2cc(C(=O)Nc3cccc(Cl)c3Cl)no2)cc1O,–,108 ± 10,> 100000,5.21 ± 0.50 (at 1.56 μM),–
COc1ccc(-c2cc(C(=O)Nc3cccc(Cl)c3C)no2)cc1O,13.44 ± 0.93,0.0283 ± 0.0048,> 100000,9.59 ± 0.85,–
Cc1cnc(Cl)cc1NC(=O)c1cc(-c2cccc(O)c2)on1,5.51 ± 0.99,–,> 100000,–,100 ± 9.6
COc1ccc(-c2cc(C(=O)Nc3cc(Cl)cnc3C)no2)cc1O,13.47 ± 1.32,11 ± 1.1,> 100000,10.10 ± 1.14,–
Cc1cc(Cl)cc(NC(=O)c2cc(-c3cccc(O)c3)on2)c1,9.34 ± 1.04,78 ± 5,> 100000,–,–
O=C(Nc1cccc(Cl)c1)c1cc(-c2ccc(F)c(O)c2)on1,10.17 ± 0.69,13 ± 2,> 100000,–,–
Cc1ccc(Cl)cc1NC(=O)c1cc(-c2ccc(F)c(O)c2)on1,19.28 ± 1.59,0.134 ± 0.016,> 100000,15.21 ± 1.26,–
Cc1ncc(Cl)cc1NC(=O)c1cc(-c2ccc(F)c(O)c2)on1,10.69 ± 1.00,16 ± 1.9,> 100000,9.12 ± 0.88,–
Cc1ncc(Cl)cc1NC(=O)c1cc(-c2cccc(O)c2)on1,10.09 ± 0.91,24 ± 2.2,> 100000,6.62 ± 0.89,–
Cc1ccc(Cl)cc1NC(=O)c1cc(-c2cccc(O)c2)on1,14.99 ± 1.20,3.5 ± 0.7,> 100000,9.63 ± 0.29,–
O=C(Nc1cccc(Cl)c1Cl)c1cc(-c2cccc(O)c2)on1,4.00 ± 0.42,12500 ± 668,> 100000,–,–
O=C(Nc1cc(Cl)ccc1Cl)c1cc(-c2cccc(O)c2)on1,4.67 ± 0.31,1520 ± 51.2,38500 ± 3980,–,–
COc1c(Cl)cccc1NC(=O)c1cc(-c2cccc(O)c2)on1,1.83 ± 0.17,42700 ± 2590,> 100000,–,–
O=C(Nc1cc(Cl)cc(Cl)c1)c1cc(-c2cccc(O)c2)on1,12.08 ± 1.92,190 ± 17,> 100000,5.72 ± 0.25,–
O=C(Nc1cccc(Cl)c1)c1cc(-c2ccc(O)cc2)on1,3.50 ± 0.57,2210 ± 174,> 100000,–,–
N#Cc1ccc(Cl)cc1NC(=O)c1cc(-c2cccc(O)c2)on1,13.99 ± 1.50,30 ± 2.6,> 100000,7.69 ± 0.61,–
O=C(Nc1cc(Cl)ccc1OCc1ccccc1)c1cc(-c2cccc(O)c2)on1,1.59 ± 0.33,17600 ± 2210,> 100000,–,–
Cc1ccccc1NC(=O)c1cc(-c2cccc(O)c2)on1,8.16 ± 0.92,30 ± 2.2,> 100000,–,–
Cc1ccccc1NC(=O)c1cc(-c2ccc(O)cc2)on1,2.94 ± 0.46,2450 ± 148,> 100000,–,–
COc1ccc(-c2cc(C(=O)Nc3cc(Cl)ccc3C)no2)cc1O,14.44 ± 0.58,0.00756 ± 0.00122,> 100000,10.02 ± 0.34,–

SMILES,Calcium Retention Capacity (CRC/CRC0 at 12.5 μM) (mtPTP),EC50 [1] [nM],EC50 (IMM potential) [nM],Calcium Retention Capacity (CRC/CRC0) at 1.56 μM (mtPTP),EC50 ([1]; unit inferred) [nM]
O=C(Nc1cc(Cl)ccc1F)c1cc(-c2cccc(O)c2)on1,–,172 ± 14,> 100000,3.77 ± 0.17 (at 1.56 μM),–
Cc1c(Cl)cccc1NC(=O)c1cc(-c2ccc(Cl)c(O)c2)on1,–,0.18 ± 0.042,> 100000,8.22 ± 0.58 (at 1.56 μM),–
Cc1ncc(Cl)cc1NC(=O)c1cc(-c2ccc(Cl)c(O)c2)on1,–,1.34 ± 0.26,> 100000,6.91 ± 0.47 (at 1.56 μM),–
Cc1ccc(Cl)cc1NC(=O)c1cc(-c2ccc(Cl)c(O)c2)on1,–,2.16 ± 0.45,> 100000,6.21 ± 0.66 (at 1.56 μM),–
Cc1ccc(Cl)cc1NC(=O)c1cc(-c2ccc(F)c(O)c2)[nH]n1,–,1.4 ± 0.2,30400 ± 5500,10.92 ± 0.74 (at 1.56 μM),–
COc1ccc(-c2cc(C(=O)Nc3cc(Cl)ccc3C)n[nH]2)cc1O,–,2.4 ± 0.4,> 100000,7.51 ± 0.47 (at 1.56 μM),–
Cc1cccc(C)c1NC(=O)c1cc(-c2cccc(O)c2)on1,–,12.1 ± 1.4,> 100000,8.12 ± 0.59 (at 1.56 μM),–
COc1ccc(-c2cc(C(=O)Nc3cccc(Cl)c3)no2)cc1O,7.18 ± 0.87,35 ± 4.2,> 100000,–,–
O=C(Nc1cc(Cl)ccc1Cl)c1cc(-c2ccc(F)c(O)c2)on1,12.15 ± 1.36,66 ± 3.2,> 100000,6.50 ± 0.77,–
COc1ccc(-c2cc(C(=O)Nc3cc(Cl)ccc3OC)no2)cc1O,9.89 ± 1.31,97 ± 3.4,> 100000,6.62 ± 0.84,–
COc1ccc(Cl)cc1NC(=O)c1cc(-c2cccc(O)c2)on1,10.89 ± 1.34,60 ± 7.6,> 100000,6.95 ± 1.15,–
CN(C)c1ccc(Cl)cc1NC(=O)c1cc(-c2cccc(O)c2)on1,2.22 ± 0.38,1610 ± 866,> 100000,–,–
COc1ccc(-c2cc(C(=O)Nc3cc(Cl)ccc3Cl)no2)cc1O,9.59 ± 1.29,146 ± 11.5,> 100000,4.34 ± 0.53,–
COc1ccc(-c2cc(C(=O)Nc3cc(Cl)ccc3F)no2)cc1O,5.37 ± 0.58,217 ± 51.8,> 100000,–,–
Cc1ccc(Cl)cc1NC(=O)c1cc(-c2ccccc2O)on1,2.10 ± 0.26,6060 ± 748,> 100000,–,–
COc1ccc(-c2cc(C(=O)Nc3cc(Cl)ncc3C)no2)cc1O [drawing 129],–,–,–,–,366 ± 47.5
O=C(Nc1cccc(Cl)c1)c1cc(-c2cccc(O)c2)on1 [drawing 166],5.47 ± 0.57,–,–,–,–
COc1ccc(Cl)cc1C(=O)Nc1ccc(CCN2CCN(C(=O)OC(C)(C)C)CC2)cc1 [drawing 174],1.90 ± 0.11,–,–,–,–
COc1ccc(/C=C/C(=O)Nc2cccc(Cl)c2)cc1O [drawing 175],14.02 ± 1.63,–,–,–,–
COc1ccc(-c2cc(C(=O)Nc3cc(Cl)cc(Cl)c3)no2)cc1O [drawing 192],3.52 ± 0.44,–,–,–,–
